Experimental findings from publication PMC10046369, “Low-Affinity/High-Selectivity Dopamine Transport Inhibition Sufficient to Rescue Cognitive Functions in the Aging Rat” (Biomolecules, 2023) are described below.

Test in all cases: cell-based
Common to all, as to design: Eurofins Cerep functional GPCR antagonist assay, reference antagonists

Assay [1] addresses T1, 5HT1B (h) (Homo sapiens, UniProt P28222).
T1 construct: gene HTR1B

Assay [2] addresses T1, 5HT1B (h). This is another data set of the same source.
Assay [3] concerns the target T2, P2Y1 (h) (Homo sapiens, UniProt P47900).
T2 construct: gene P2RY1

The target of assay [4] is T2, P2Y1 (h). The source holds these as a separate data set.
Assay [5] concerns the target T3, 5-HT2B (h) (Homo sapiens, UniProt P41595).
T3 construct: gene HTR2B

Assay [6] has as its target T3, 5-HT2B (h). This is another data set of the same source.

T3 sequence (P41595 whole entry): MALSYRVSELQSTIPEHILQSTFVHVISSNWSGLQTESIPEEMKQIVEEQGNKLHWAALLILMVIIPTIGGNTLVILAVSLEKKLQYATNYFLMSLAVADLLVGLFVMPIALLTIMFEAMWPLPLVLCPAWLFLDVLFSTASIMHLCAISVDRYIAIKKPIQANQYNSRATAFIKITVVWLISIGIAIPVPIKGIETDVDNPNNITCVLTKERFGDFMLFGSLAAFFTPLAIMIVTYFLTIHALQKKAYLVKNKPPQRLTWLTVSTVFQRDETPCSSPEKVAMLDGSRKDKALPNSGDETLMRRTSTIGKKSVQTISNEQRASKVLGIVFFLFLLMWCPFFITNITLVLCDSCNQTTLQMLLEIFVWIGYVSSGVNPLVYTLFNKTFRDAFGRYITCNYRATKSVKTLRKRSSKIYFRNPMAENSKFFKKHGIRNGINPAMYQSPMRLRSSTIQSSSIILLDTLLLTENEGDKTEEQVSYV
T1 sequence (P28222 whole entry): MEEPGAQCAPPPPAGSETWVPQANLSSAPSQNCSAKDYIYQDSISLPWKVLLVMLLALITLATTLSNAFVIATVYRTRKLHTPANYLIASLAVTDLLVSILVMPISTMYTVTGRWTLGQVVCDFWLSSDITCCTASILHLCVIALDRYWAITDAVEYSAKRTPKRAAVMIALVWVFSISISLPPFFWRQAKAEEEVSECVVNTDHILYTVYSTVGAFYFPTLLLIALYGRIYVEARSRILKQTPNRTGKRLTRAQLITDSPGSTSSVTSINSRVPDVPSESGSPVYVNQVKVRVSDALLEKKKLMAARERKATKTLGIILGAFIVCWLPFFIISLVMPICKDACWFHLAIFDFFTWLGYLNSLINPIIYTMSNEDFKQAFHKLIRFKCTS
T2 sequence (P47900 whole entry): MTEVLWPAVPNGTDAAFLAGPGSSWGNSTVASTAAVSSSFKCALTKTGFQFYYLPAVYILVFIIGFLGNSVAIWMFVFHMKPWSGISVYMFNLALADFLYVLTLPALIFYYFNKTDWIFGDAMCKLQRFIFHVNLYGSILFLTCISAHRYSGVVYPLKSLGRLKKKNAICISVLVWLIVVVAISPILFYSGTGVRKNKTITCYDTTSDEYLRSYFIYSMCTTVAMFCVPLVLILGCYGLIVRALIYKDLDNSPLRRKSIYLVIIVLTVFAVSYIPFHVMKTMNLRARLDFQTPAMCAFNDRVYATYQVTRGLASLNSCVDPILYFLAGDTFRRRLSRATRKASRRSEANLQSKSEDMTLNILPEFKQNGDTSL

`CN(C)CCCc1cc(C(=O)Nc2ccc(-c3ccncc3)cc2)ccc1O` [GR55562]: the Kb (usually the affinity of an antagonist, worked out from how it opposes an agonist) on 5HT1B (h) [1] stood at 11 nM. Also, the IC50 (as a rule, the concentration that inhibits the measured activity by half) against 5HT1B (h) [2] is 69 nM.

Compound `CNc1nc(I)nc2c1ncn2[C@H]1C[C@H](OP(=O)(O)O)[C@]2(COP(=O)(O)O)C[C@H]12` [MRS 2500] gave a Kb on P2Y1 (h) [3] of 0.43 nM. At P2Y1 (h) [4], this compound showed an IC50 of 1.9 nM.

`Cn1ccc2cc3c(cc21)CCN3C(=O)Nc1cccnc1` [SB 206553]: the Kb at 5-HT2B (h) [5] was 2.9 nM. For the same compound, the IC50 against 5-HT2B (h) [6] was determined as 19 nM.
